This is an account of results in patent US20110269811A1, “INHIBITORS OF SEMICARBAZIDE-SENSITIVE AMINE OXIDASE (SSAO) AND VAP-1 MEDIATED ADHESION USEFUL FOR TREATMENT AND PREVENTION OF DISEASES” (priority 2006, published 2011).

pIC50: −log10 of the molar value. Where a name gives a salt, the structure may show the parent alone.

This assay addresses T1, Human SSAO (Homo sapiens, UniProt Q16853).
T1 construct: rat lung or human umbilical cord homogenates were prepared by chopping the freshly removed tissue; from tissue; host or cells: human umbilical cord homogenate (25,000 g supernatant)
T1 sequence (Q16853 1-763): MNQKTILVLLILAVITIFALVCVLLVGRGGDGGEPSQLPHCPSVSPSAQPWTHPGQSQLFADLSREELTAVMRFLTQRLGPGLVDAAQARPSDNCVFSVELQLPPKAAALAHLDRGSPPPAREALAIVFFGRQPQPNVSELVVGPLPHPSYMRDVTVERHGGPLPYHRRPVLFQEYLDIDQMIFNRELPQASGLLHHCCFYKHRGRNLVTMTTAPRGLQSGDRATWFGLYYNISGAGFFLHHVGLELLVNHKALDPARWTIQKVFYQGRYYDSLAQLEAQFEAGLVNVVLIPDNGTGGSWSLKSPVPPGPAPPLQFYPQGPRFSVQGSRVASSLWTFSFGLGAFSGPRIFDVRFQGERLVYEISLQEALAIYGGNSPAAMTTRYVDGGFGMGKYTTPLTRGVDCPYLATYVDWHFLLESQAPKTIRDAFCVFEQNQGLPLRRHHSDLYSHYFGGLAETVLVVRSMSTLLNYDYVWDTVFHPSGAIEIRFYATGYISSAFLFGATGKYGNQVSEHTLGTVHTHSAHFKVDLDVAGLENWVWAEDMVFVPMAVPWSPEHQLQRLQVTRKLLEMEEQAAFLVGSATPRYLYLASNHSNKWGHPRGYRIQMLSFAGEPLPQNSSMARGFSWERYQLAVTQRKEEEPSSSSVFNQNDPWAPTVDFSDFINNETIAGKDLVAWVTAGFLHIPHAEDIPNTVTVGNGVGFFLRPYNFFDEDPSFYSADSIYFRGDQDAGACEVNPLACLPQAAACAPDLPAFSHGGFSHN
The experiment in a line: In vitro inhibition of SSAO activity, human umbilical cord homogenate, 14C-benzylamine. In kind it is biochemical. The note with it: human umbilical cord homogenate; read-out: Human SSAO IC50. On the procedure: SSAO activity was measured as described (Lizcano J M. Et al. (1998) Biochem J. 331:69). Briefly, rat lung or human umbilical cord homogenates were prepared by chopping the freshly removed tissue into small pieces and washing them thoroughly in PBS. The tissue was then homogenized 1:10 (w/v) for lung or 1:5 (w/v) for umbilical cord, in 10 mM potassium phosphate buffer (pH 7.8). Homogenates were then centrifuged at 1000 g at 4° C. for 10 min (lung) or 25,000 g for 30 min (umbilical cord); the supernatants were kept frozen until ready to use. Lung or umbilical cord homogenate was preincubated with clorgyline and pargyline at 1 μM to inhibit MAO-A and -B activity, respectively, and SSAO inhibitors were generally present at 1 nM-10 μM. The reaction was initiated by addition of 20 μM ^14C— benzylamine as substrate. The reaction was carried out at 37° C. in a final volume of 400 μL of 100 mM potassium phosphate buffer (pH 7.2) and stopped with 100 μl of 2M citric acid. Radioactively labeled products were extracted into toluene/ethyl acetate (1:1, v/v) containing 0.6% (w/v) 2,5-diphenyloxazole (PPO) before liquid scintillation counting.
Usually pIC50 stands for −log10 of the IC50, conventionally taken in molar units. `CCOc1ccc(C/C(=C\F)CN)cc1.Cl` [Compound I-2-E, (E)-3-Fluoro-2-(4-ethoxybenzyl)-allylamine hydrochloride]: the pIC50 is 8.05. Then `Cl.NC/C(=C\F)Cc1ccc(Cl)cc1` [Compound I-3-Z, (Z)-2-(4-Chlorobenzyl)-3-fluoro-allylamine hydrochloride], with 7.55; and `COc1cccc(C/C(=C/F)CN)c1.Cl` [Compound I-5-Z, (Z)-3-Fluoro-2-(3-methoxybenzyl)allylamine hydrochloride], with 7.55; and `CC(C)Oc1ccc(C/C(=C\F)CN)cc1` [Compound I-8-E, (E)-3-Fluoro-2-(4-isopropoxybenzyl)allylamine hydrochloride], with 7.94. To `CC(C)Oc1ccc(C/C(=C/F)CN)cc1.Cl` [Compound I-8-Z, (Z)-3-Fluoro-2-(4-isopropoxybenzyl)allylamine hydrochloride] belongs 8.30; to `CSc1ccc(C/C(=C/F)CN)cc1.Cl` [Compound I-9-Z, (Z)-3-Fluoro-2-(4-methylthiobenzyl)allylamine hydrochloride], 7.92; to `CC(C)c1ccc(C/C(=C\F)CN)cc1.Cl` [Compound I-14-E, (E)-3-Fluoro-2-(4-isopropylbenzyl)allylamine hydrochloride], 7.89. Then `CC(C)c1ccc(C/C(=C/F)CN)cc1.Cl` [Compound I-14-Z, (Z)-3-Fluoro-2-(4-isopropylbenzyl)allylamine hydrochloride], with 8.10.

Take `CC(C)(C)c1ccc(C/C(=C/F)CN)cc1.Cl` [Compound I-15-Z, (Z)-3-Fluoro-2-(4-tert-butylbenzyl)allylamine hydrochloride]: the pIC50 is 8.15. To `Cl.NC/C(=C\F)Cc1cccc(F)c1` [Compound I-19-Z, (Z)-3-Fluoro-2-(3-fluorobenzyl)allylamine hydrochloride] belongs 7.60; to `NC/C(=C\Cl)CCc1cc(F)cc(C(F)(F)F)c1.O=C(O)C(F)(F)F` [Compound I-40-Z, (Z)-3-Chloro-2-(3-fluoro-5-trifluoromethylphenylethyl)allylamine trifluoroacetate], 6.04. To `COc1ccc(CC/C(=C\Cl)CN)cc1.Cl` [Compound I-44-Z, (E)-3-Chloro-2-(4-methoxyphenylethyl)allylamine hydrochloride] belongs 6.14. For the molecule `CCOc1ccc(CC/C(=C\Cl)CN)cc1.Cl` [Compound I-45-Z, (E)-3-Chloro-2-(4-ethoxyphenylethyl)allylamine hydrochloride], the pIC50 is 6.85. To `CCCCOc1ccc(CC/C(=C\Cl)CN)cc1.Cl` [Compound I-47-E, (E)-3-Chloro-2-(4-n-butoxyphenylethyl)allylamine hydrochloride] belongs 6.77; to `NC/C(=C\F)CCc1ccc(F)cc1` [Compound I-99-Z, (Z)-2-(fluoromethylene)-4-(4-fluorophenyl)butan-1-amine], 6.89. Then `COc1ccc(CC/C(=C/F)CN)cc1.Cl` [Compound I-102-Z, (Z)-3-Fluoro-2-[2-(4-methoxyphenyl)-ethyl]-allylamine hydrochloride], with 7.52; and `NC/C(=C\F)CCc1cc(F)cc(C(F)(F)F)c1.O=C(O)C(F)(F)F` [Compound I-109-Z, (Z)-3-Fluoro-2-(3-fluoro-5-trifluoromethylphenylethyl)allylamine trifluoroacetate], with 6.57; and `Cl.NC/C(F)=C\Cc1ccc(F)cc1` [II-5-E, (E)-2-Fluoro-4-(4-fluorophenyl)-2-butenylamine hydrochloride], with 6.52. Regarding `Cc1cccc(C/C=C(/F)CN)c1.Cl` [II-6-E, (E)-2-Fluoro-4-(3-methylphenyl)-2-butenylamine hydrochloride], the pIC50 was 6.89. `Cl.NC/C(F)=C\Cc1cccc(F)c1` [II-7-E, (E)-2-Fluoro-4-(3-fluorophenyl)-2-butenylamine hydrochloride]: the pIC50 was 6.66. Then `COc1cccc(C/C=C(/F)CN)c1.Cl` [II-8-E, (E)-2-Fluoro-4-(3-methoxyphenyl)-2-butenylamine hydrochloride], with 7.66; and `Cl.NC/C(F)=C\Cc1ccccc1` [II-9-E, (E)-2-Fluoro-4-phenyl-2-butenylamine hydrochloride], with 7.00; and `Cl.NC/C(F)=C\Cc1cccc(OC(F)(F)F)c1` [II-10-E, (E)-2-Fluoro-4-(3-trifluoromethoxyphenyl)-2-butenylamine hydrochloride], with 7.74. Then `CN(C)c1cccc(C/C=C(/F)CN)c1.Cl` [II-11-E, (E)-2-Fluoro-4-(3-dimethylaminophenyl)-2-butenylamine hydrochloride], with 6.96; and `CSc1cccc(C/C=C(/F)CN)c1.Cl` [II-13-E, (E)-2-Fluoro-4-(3-methylthiophenyl)-2-butenylamine hydrochloride], with 8.00; and `CS(=O)(=O)c1cccc(C/C=C(/F)CN)c1.Cl` [II-14-E, (E)-2-Fluoro-4-(3-methanesulfonylphenyl)-2-butenylamine hydrochloride], with 7.15. Take `Cl.NC/C(F)=C\Cc1cccc(SC(F)(F)F)c1` [II-15-E, (E)-2-Fluoro-4-(3-trifluoromethylthiophenyl)-2-butenylamine hydrochloride]: the pIC50 was 7.64.

As to `COc1cccc(C/C(C)=C(/F)CN)c1` [II-18-E, hydrochloride], the pIC50 is 6.54. Then `COc1cccc(OC/C=C(/F)CN)c1` [II-19-E, (E)-2-fluoro-4-(3-methoxyphenoxy)but-2-en-1-amine], with 6.80.
